Experiment: Pharmacokinetics in brain tissue after a single oral dose (HPLC-MS/MS)
Format: in vivo, CD1 IGS mice
Conditions: single oral 10 mg/kg
Procedure: CD1 IGS mice received a single oral dose of PA96 in Tween 80 (10 mg/kg). Mice were sacrificed 5, 10, 30, 60, and 120 min after injection, and all brain samples were collected and placed into an Eppendorf microtube (2 mL). Samples were frozen with liquid nitrogen for subsequent preparation and HPLC-MS/MS analysis. A set of calibrators were prepared, followed by their preparation protocol, and analyzed. The calibration curve was built in the interval of 1–100 ng/g and used to calculate the PA96 concentration in the brain tissue samples.
A stock solution was prepared by dissolving approximately 10 mg of PA96 in a required amount of pure methanol to have the solution with a concentration of 1.0 mg/mL. The working solutions of PA96 with concentrations of 5, 7.5, 25, 50, 75, 250, and 300 ng/mL were prepared by diluting the stock solution with methanol. To prepare a calibrator, a free PA96 brain tissue (~50 mg) was weighed and transferred into an Eppendorf microtube (V = 1.5 mL), then the working solution of PA-96 was added. The mixture was homogenized (Minilys, Bertin Technologies, Montigny-leBretonneux, France) for 60 s at low speed. The calibrators were prepared on the day of the experiment. The working solution of IS in acetonitrile with a concentration of 1.0 mg/mL was used. All the solutions were stored at −18 °C. Before sample preparation, the solutions were brought to room temperature.
The exact amount (~50 mg) of the mouse brain tissue sample was transferred into a polypropylene tube (1.5 mL). For each portion, the solution of IS (1 µL per 1 mg of the brain sample) and pure acetonitrile (10 µL per 1 mg of the brain sample) were added, then all samples were homogenized for 4 min at medium speed. After the homogenization procedure, ~100 mg of the salt mixture (magnesium sulfate: sodium chloride: trisodium citrate: disodium citrate as 4:1:1:0.5) for extraction was added, followed by shaking for 30 min at 1400 rpm in an orbital shaker. The supernatant was separated from the homogenate by centrifugation for 10 min at 13,400 rpm. The obtained solution was further shaken with ~80 mg of the SPE mixture (magnesium sulfate:C18EC as 6:1 and acetonitrile) for 10 min at 1400 rpm and centrifuged for 10 min at 13,400 rpm. A total of 300 µL of the organic phase was placed into a fresh tube and evaporated to dryness in a vacuum. The residue containing the analyte and IS was dissolved in 150 μL of methanol, shaken for 10 min, transferred into a chromatographic vial, and analyzed by HPLC-MS/MS.
The LC-MS/MS analysis was performed using an LC-20AD Prominence chromatograph equipped with an autosampler thermostated at +10 °C (Shimadzu, Japan) and a 3200 QTRAP mass spectrometer equipped with an ESI source (AB SCIEX, USA). Separation was achieved on a ProntoSil-120-5-C18 AQ column (2.0 × 75 mm, 5 μm particles, (EcoNova, Novosibirsk, Russia)) thermostated at +35 °C. The mobile phase was composed of water containing 0.1% formic acid (eluent A) and methanol containing 0.1% formic acid (eluent B). The gradient elution program was as follows: 0 min-10% (B); 0.5 min-10% (B); 7 min-98% (B); 9 min-98% (B); the flow rate was 200 μL/min.
The mass spectrometer was operated using multiple reaction monitoring (MRM) in positive ion mode. Ionization was conducted by applying a voltage of 5500 V, and the source temperature was set at +350 °C. For the analyte and IS, the optimized source parameters, viz. CUR (curtain gas), GS1 (Gas 1), and GS2 (Gas 2) were set at 20 psi. The CAD (collisionally activated dissociation) gas was nitrogen, and the parameter was set as high. The parameters of PA96, viz. MRM transitions, declustering potentials (DP), collision energies (CE), and collision cell exit potentials (CXP) are presented in Table 3. The dwell time was 100 msec. Analyst 1.6.2 software (AB SCIEX, USA) was used for instrument control and data acquisition, and MultiQuant 2.1 software (AB SCIEX, USA) was used for quantification. […]

For `C=C(C)[C@@H]1CC=C(C)[C@@H](Sc2nc[nH]n2)[C@@H]1O` [PA96, (1R,2R,6S)-2-(1H-1,2,4-triazol-3-ylthio)-3-methyl-6-(prop-1-en-2-yl)cyclohex-3-enol], the Kp (CD1 IGS, mouse, brain and whole blood, read-out: Kb,brain (brain-to-blood coefficient, AUCbrain/AUCblood)) was 0.119 ± 0.01, the Cmax (CD1 IGS, mouse, brain) was 125 ng/g and the Tmax (CD1 IGS, mouse, brain) was 5 min. The half-life (CD1 IGS, mouse, brain) was 18.8 ± 0.3 min, the MRT inf (CD1 IGS, mouse, brain, read-out: MRT0-inf_obs (converted)) was 21.5 min and the “concentration in blood higher than in brain tissue” value (at 5 min) was “approximately 4.5 times”. The AUC0-inf_obs (brain) was “(2.03 ± 0.09) × 10^3 ng/g∗min”, the AUC0-t (brain) was “(1.99 ± 0.09) × 10^3 ng/g∗min” and the “time at which the concentration in brain was close to the minimum value” was 2 h.

From publication PMC9738927, “A Newly Identified Monoterpenoid-Based Small Molecule Able to Support the Survival of Primary Cultured Dopamine Neurons and Alleviate MPTP-Induced Toxicity In Vivo” (Molecules, 2022)
